Among the data in ChEMBL document CHEMBL1201862, “PubChem BioAssay data set” (2004) are IC50, EC50 and AC50 values, retold here.

For orientation: IC50 means the point on the concentration scale where inhibition reaches its midpoint. As usually defined, the EC50 is the midpoint of the concentration-response curve. For orientation: AC50 means the concentration at which the activity in the assay is half-maximal.

Assay [1] in a line: StAR promoter reporter inhibition counter-screen, dose response, counter-screen for LRH-1 inverse agonist project, cell-based, luminescence, luciferase reporter (AID 651969). In kind it is functional. A general note: Counterscreens check selectivity or assay interference.
Assay [2] deals with Nuclear receptor subfamily 5 group A member 2 (Homo sapiens, UniProt O00482). In kind it is functional, cell-based.
The next assay deals with Steroidogenic factor 1 (Homo sapiens, UniProt Q13285). Briefly: Counterscreen for inverse agonists of the liver receptor homolog-1 (LRH-1; NR5A2): Luminescence-based cell-based high throughput dose response assay to identify inverse agonists of the Steroidogenic Factor 1 Nuclear Receptor (SF1; NR5A1). It counts as functional.
The next assay addresses Melanocortin receptor 4 (Homo sapiens, UniProt P32245). In kind it is functional, cell-based.
A short description of assay [3]: Luminescence Cell-Based Dose Retest to Confirm Inhibitors of Cancer Stem Cells. [Related pubchem assays (depositor defined):AID2717, AID2721]. In kind it is functional. The note with it: Homo sapiens.
A short description of assay [4]: cytotoxicity toward NIH3T3 fibroblasts, dose response, counter-screen, cell-based, ATP luminescence, mouse fibroblasts (AID 2010).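 Also: cells exposed to compound for about 90 hours before reading.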 In kind it is functional.
Assay [5] is described as follows: inhibitors of intracellular T. cruzi replication, confirmation, NIH3T3 host cells, beta-gal luminescence (AID 2044).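 Also: intracellular parasites grown in NIH/3T3 mouse fibroblasts as host cells; luminescent beta-galactosidase reporter signal from transgenic T. cruzi replicating inside host cells; inhibitors lower the luminescence signal.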 It counts as functional, cell-based.
Assay [6] concerns the target T1, DNA repair protein RAD52 homolog (Homo sapiens, UniProt P43351).
T1 sequence (P43351 whole entry): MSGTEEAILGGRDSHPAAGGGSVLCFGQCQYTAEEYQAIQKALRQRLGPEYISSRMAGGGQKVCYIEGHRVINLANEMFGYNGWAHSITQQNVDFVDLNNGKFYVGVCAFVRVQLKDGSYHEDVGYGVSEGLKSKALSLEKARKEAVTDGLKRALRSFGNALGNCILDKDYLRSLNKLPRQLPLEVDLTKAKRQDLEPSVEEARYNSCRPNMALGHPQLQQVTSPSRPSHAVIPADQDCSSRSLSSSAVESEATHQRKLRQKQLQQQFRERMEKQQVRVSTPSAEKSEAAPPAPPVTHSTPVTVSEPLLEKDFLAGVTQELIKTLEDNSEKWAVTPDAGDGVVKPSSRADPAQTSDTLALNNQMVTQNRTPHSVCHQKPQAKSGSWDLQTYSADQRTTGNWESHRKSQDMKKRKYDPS
In kind it is functional, biochemical.

Assay [7] addresses Photoreceptor-specific nuclear receptor (Homo sapiens, UniProt Q9Y5X4). It counts as functional, cell-based.
Assay [8] concerns the target T2, Apoptotic protease-activating factor 1 (Homo sapiens, UniProt O14727).
T2 sequence (O14727 whole entry): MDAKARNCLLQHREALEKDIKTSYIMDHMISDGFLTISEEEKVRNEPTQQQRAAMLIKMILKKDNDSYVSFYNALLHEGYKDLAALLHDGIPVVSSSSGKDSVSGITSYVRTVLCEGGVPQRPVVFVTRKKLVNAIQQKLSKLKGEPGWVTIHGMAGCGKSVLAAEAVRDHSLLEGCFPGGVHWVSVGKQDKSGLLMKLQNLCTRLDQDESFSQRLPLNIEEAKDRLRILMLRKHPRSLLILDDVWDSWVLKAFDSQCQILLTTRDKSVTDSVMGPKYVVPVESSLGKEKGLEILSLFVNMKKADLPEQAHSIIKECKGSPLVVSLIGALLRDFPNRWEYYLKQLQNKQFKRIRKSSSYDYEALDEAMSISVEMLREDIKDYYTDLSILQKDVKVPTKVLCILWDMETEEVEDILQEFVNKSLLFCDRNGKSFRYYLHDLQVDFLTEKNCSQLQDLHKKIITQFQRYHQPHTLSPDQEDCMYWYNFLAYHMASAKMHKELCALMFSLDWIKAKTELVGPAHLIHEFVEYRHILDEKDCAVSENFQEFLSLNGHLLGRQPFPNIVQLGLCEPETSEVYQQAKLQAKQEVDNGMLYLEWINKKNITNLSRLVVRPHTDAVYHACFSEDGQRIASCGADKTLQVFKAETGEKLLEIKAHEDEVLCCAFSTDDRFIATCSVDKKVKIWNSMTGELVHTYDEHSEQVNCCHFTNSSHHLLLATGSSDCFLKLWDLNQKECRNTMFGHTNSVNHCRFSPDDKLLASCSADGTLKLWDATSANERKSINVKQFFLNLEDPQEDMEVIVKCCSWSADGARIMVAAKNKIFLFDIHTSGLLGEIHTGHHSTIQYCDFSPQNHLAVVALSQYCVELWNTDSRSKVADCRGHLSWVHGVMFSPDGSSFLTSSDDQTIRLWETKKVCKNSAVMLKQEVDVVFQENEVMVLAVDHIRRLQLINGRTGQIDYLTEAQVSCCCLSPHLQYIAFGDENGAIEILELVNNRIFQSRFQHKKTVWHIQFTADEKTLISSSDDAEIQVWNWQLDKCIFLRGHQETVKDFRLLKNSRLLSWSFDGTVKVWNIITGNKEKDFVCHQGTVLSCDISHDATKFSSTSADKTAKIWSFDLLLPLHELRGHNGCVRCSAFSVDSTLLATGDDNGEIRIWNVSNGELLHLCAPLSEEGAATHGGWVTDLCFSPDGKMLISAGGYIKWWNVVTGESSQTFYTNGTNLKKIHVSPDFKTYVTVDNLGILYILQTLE
It counts as functional.

A short description of assay [9]: Luminescence Cell-Based Dose Response HTS to Identify Inhibitors of 5'UTR Stem-Loop Driven Prion Protein mRNA Translation in H4 Neuroglioblastoma Cells. [Related pubchem assays: 1827 (Project Summary), 1813 (Primary HTS)]. In kind it is functional.
The target in assay [10] is Arf-GAP with SH3 domain, ANK repeat and PH domain-containing protein 1 (Homo sapiens, UniProt Q9ULH1). In kind it is functional.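 Also: biochemical fluorescence polarization dose–response screen measuring inhibition of ASAP1; ASAP1 GAP domain stimulating GTP hydrolysis by truncated human ARF1.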
The nature of assay [11]: inhibitors of firefly luciferase expression or activity, dose response, H4 neuroglioma cells, luminescence (AID 1990). In kind it is functional, cell-based.
Assay [12] is described as follows: inhibitors of SNCA 5'UTR-driven reporter translation, confirmation, H4 neuroglioma cells, luminescence (AID 1988). It counts as functional, cell-based.
Assay [13] can be described thus: ARNT/TACC3 interaction disruptors, potency, confirmation, biochemical, AlphaScreen, cherry-picked samples (AID 651703).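 Also: His-tagged ARNT PAS-B domain paired with GST-TACC3 E629A dimer coactivator fragment; potency of inhibitors that break up the complex and lower AlphaScreen signal.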 It counts as functional, Homo sapiens. For orientation: In Alpha technology, singlet oxygen from a donor bead excites a nearby acceptor bead.
In assay [14] the target is DNA repair and recombination protein RAD54-like (Homo sapiens, UniProt Q92698). Briefly: inhibitors of human RAD54 branch migration, confirmation, biochemical, fluorescence, cherry-picked samples, dose series (AID 651657). It counts as functional.
The next assay concerns Vero. Description: Vero cell toxicity, dose response, cytotoxicity control, plate reader, cherry-pick samples (AID 687020). It counts as functional, cell-based. Conditions: Chlorocebus sabaeus.
For another assay, the system named is H9c2. Briefly: cells. In kind it is functional, cell-based. The note with it: Rattus norvegicus, H9c2, Myocardium.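 Also: confirmatory concentration-response retest of ultra-high-throughput screening hits for modulation of myocardial damage; cell death induced by hydrogen peroxide oxidative stress; compound pretreatment for 60 min then peroxide exposure for 2 h; potency is for protecting the cells against peroxide damage rather than for killing them.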
Assay [15] can be described thus: inhibitors of PGC1a acetylation in cells, dose response, cell-based, cherry-picked samples (AID 720514).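 Also: potency may reflect raised or lowered acetylation signal.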 In kind it is functional.
In assay [16] the target is Hepatocyte nuclear factor 4-alpha (Homo sapiens, UniProt P41235). In kind it is functional, cell-based.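 Also: biochemical luminescence-based dose-response counterscreen measuring inhibition of HNF4 dimerization, run alongside a screen for blockers of ABHD5–perilipin-5 interaction; split luciferase complementation of HNF4 fusion proteins in cell lysate measuring dimerization.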
The next assay deals with Paired box protein Pax-8 (Homo sapiens, UniProt Q06710). Description: inhibitors of PAX8-driven TPO luciferase reporter, dose response, RMG-I cells, cherry-pick (AID 687027).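 Also: luciferase reporter driven by Pax8 target thyroperoxidase promoter measured by SteadyGlo luminescence.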 In kind it is functional, cell-based. Background: Reporter assays use an easily measured gene product as a stand-in for the process of interest.
Assay [17] can be described thus: Fluorescence-based cell-based high throughput dose response assay for inhibitors of the interaction of nucleotide-binding oligomerization domain containing 2 (NOD2) and the receptor-interacting serine-threonine kinase 2 (RIPK2). Conditions: Homo sapiens. In kind it is functional.
A further assay concerns HEK293. Description: inhibitors of LMP1-driven NF-kB reporter, dose response, cell-based, HEK293, luciferase, cherry-pick (AID 588343). The note with it: Homo sapiens. In kind it is functional.
Assay [18] is described as follows: intracellular Trypanosoma cruzi inhibitors in host cells – cell-based, plate reader, cherry-pick samples, set 3, dose response (AID 651818).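 Also: compounds incubated with infected cells for about four days.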 In kind it is functional.
Assay [19] is described as follows: miR-122 activators in hepatoma reporter cells, dose response, cell-based, Huh7 psiCHECK-miR122, Renilla luciferase, cherry-picked (AID 651956).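 Also: huh7 hepatoma cells stably carrying a psiCHECK-2 miR-122 sensor plasmid; renilla luciferase signal reporting endogenous miR-122 activity after 48 h compound exposure.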 In kind it is functional.
Assay [20] is described as follows: Counterscreen for activators of the function of SWI/SNF related, matrix associated, actin dependent regulator of chromatin, subfamily a, member 2 (SMARCA2, BRM): Luminescence-based cell-based high throughput dose response assay to identify non-selective compounds using the VP16 reporter assay. In kind it is functional.
For assay [21], the target named is SWI/SNF-related matrix-associated actin-dependent regulator of chromatin subfamily A member 2 (Homo sapiens, UniProt P51531). Description: Luminescence-based cell-based high throughput dose response assay to identify activators of the function of SWI/SNF related, matrix associated, actin dependent regulator of chromatin, subfamily a, member 2 (SMARCA2, BRM). It counts as functional.

Active and inactive are the calls of the source. Some results are limits rather than exact numbers.

Photoreceptor-specific nuclear receptor, sequence (Q9Y5X4 whole entry): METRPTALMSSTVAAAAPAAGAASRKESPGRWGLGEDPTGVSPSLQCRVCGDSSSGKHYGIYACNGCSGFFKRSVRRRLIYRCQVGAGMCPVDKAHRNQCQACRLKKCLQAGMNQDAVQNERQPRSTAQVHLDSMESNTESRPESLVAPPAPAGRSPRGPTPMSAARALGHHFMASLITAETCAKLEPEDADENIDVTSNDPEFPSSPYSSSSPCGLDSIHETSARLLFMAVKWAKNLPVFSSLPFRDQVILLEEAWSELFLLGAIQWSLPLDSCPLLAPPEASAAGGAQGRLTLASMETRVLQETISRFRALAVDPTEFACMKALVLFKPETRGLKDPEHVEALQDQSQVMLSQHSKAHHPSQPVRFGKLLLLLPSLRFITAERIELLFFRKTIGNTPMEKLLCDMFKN
DNA repair and recombination protein RAD54-like, sequence (Q92698 whole entry): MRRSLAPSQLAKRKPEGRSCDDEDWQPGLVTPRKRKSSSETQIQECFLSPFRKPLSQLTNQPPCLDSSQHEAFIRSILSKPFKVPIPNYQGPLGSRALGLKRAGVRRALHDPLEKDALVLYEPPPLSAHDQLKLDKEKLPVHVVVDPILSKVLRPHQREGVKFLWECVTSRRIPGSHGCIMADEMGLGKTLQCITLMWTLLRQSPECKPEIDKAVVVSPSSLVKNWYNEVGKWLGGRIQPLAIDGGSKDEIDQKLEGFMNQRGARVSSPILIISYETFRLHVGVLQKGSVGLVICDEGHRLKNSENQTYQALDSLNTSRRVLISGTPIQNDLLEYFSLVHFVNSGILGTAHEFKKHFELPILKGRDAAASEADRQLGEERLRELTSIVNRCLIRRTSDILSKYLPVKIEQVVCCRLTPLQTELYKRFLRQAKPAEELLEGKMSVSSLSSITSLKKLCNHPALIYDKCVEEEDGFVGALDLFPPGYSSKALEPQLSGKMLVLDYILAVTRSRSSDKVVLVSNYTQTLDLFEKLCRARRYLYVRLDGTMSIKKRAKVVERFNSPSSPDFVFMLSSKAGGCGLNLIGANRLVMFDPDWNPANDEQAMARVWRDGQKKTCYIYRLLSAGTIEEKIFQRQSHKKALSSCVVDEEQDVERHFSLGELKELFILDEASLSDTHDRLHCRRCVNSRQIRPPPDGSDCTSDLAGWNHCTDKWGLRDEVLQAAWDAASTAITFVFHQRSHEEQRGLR
Hepatocyte nuclear factor 4-alpha, sequence (P41235 whole entry, the tested form may be a part): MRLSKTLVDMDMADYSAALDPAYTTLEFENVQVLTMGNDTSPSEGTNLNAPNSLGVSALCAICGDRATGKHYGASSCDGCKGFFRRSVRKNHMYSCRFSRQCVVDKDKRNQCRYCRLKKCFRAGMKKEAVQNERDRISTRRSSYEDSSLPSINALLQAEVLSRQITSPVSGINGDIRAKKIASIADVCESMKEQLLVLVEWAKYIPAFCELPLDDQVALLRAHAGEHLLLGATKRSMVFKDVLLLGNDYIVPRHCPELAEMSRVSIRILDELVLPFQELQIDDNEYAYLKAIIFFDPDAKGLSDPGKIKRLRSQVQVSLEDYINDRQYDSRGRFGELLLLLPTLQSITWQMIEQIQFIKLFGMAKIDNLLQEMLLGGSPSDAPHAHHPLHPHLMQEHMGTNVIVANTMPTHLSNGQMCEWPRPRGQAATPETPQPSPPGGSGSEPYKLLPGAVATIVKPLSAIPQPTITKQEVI
Melanocortin receptor 4, sequence (P32245 whole entry): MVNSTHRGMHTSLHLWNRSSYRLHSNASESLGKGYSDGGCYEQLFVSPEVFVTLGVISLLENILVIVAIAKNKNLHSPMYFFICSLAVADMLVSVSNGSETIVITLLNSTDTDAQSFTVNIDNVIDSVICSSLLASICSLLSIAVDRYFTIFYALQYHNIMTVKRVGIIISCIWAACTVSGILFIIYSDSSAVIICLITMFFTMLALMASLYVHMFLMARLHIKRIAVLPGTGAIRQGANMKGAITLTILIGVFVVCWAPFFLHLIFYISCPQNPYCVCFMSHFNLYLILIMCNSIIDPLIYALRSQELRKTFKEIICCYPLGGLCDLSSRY
Steroidogenic factor 1, sequence (Q13285 whole entry): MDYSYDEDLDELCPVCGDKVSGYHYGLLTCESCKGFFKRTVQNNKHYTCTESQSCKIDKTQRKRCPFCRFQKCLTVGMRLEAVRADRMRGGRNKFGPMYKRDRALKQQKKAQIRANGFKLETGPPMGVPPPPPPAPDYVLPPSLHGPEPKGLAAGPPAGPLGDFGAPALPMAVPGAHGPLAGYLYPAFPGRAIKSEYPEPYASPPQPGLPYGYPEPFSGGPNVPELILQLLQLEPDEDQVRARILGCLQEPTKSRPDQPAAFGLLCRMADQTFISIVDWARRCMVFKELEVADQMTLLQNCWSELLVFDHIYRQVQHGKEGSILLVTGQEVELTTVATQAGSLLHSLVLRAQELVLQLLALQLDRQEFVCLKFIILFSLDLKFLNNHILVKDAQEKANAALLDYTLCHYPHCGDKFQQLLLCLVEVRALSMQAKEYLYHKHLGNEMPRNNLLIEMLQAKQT
Nuclear receptor subfamily 5 group A member 2, sequence (O00482 whole entry): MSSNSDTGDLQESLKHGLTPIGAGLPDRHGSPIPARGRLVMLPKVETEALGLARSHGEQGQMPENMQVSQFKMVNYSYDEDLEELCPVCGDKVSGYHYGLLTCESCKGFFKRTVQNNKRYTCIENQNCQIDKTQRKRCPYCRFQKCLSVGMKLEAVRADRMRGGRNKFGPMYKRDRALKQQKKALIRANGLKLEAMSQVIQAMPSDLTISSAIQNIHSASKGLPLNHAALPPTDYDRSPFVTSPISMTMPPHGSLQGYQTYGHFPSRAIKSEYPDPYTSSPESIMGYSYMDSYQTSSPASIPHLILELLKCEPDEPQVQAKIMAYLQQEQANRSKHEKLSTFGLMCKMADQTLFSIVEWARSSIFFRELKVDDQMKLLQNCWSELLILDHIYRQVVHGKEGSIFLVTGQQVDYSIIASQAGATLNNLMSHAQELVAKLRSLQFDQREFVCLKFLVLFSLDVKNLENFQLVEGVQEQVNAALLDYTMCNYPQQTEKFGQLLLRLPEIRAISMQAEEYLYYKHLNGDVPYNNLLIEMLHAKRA
Arf-GAP with SH3 domain, ANK repeat and PH domain-containing protein 1, sequence (Q9ULH1 whole entry, the tested form may be a part): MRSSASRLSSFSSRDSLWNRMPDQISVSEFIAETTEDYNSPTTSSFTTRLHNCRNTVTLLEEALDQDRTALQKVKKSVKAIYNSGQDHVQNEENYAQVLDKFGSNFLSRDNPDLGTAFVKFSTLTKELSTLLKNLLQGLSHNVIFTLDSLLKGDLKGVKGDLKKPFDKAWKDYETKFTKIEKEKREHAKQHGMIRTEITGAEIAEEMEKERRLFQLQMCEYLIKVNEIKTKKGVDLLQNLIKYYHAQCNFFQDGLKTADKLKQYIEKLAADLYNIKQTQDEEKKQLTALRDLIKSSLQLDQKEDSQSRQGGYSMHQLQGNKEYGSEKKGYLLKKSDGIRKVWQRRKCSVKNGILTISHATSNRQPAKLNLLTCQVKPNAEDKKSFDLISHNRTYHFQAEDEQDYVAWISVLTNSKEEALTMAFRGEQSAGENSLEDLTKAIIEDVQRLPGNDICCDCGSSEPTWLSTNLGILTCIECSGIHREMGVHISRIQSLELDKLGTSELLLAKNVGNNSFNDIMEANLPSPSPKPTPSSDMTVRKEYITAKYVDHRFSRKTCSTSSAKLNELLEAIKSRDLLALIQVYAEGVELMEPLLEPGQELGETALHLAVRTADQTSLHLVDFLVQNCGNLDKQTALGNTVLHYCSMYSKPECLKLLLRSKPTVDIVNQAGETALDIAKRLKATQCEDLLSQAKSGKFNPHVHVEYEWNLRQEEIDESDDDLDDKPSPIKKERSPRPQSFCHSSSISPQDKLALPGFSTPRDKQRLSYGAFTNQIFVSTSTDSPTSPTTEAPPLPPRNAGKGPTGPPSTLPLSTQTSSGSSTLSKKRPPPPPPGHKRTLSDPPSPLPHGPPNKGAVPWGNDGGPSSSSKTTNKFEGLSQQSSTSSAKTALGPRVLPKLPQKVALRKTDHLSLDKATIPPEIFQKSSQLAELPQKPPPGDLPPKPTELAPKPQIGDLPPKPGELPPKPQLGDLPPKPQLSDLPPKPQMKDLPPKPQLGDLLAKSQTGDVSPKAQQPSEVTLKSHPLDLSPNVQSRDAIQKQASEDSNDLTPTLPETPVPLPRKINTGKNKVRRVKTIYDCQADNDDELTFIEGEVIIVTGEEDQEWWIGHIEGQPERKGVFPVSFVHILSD
Paired box protein Pax-8, sequence (Q06710 whole entry, the tested form may be a part): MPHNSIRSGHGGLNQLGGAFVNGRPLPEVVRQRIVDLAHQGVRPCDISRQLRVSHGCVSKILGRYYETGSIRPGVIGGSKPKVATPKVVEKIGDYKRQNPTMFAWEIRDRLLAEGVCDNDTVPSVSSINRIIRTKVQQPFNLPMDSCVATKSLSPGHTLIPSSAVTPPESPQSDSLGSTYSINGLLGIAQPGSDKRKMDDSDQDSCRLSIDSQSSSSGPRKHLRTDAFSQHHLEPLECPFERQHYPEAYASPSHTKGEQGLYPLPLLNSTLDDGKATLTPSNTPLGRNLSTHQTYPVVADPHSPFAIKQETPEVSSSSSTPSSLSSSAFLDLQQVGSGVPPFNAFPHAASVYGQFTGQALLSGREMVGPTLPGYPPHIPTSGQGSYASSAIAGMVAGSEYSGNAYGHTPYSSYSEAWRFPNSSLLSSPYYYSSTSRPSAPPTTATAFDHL

Turning to `O=C(COC(=O)c1ccc(=O)n(Cc2ccccc2)n1)Nc1ccc2c(c1)OCCO2`, the IC50 (in [1]; in assay [2]; at Steroidogenic factor 1) was 35.9 µM (inactive) throughout. Turning to `CC12CCC3C(CC=C4CC(O)CCC43C)C1C/C(=C\c1ccccc1F)C2=O` (centres undefined), the EC50 on Melanocortin receptor 4 is > 89.2 µM (inactive). Also, in [3], the AC50 is 2.76 µM (active). `Cc1ccc2sc(N(CCCN(C)C)C(=O)CN3C(=O)c4ccccc4C3=O)nc2c1C`: the EC50 in assay [4] was > 60 µM (not active); on Melanocortin receptor 4, > 89.2 µM (inactive); in assay [5], 0.225 µM (active). For the same molecule, the AC50 in assay [6] was 13.8 µM (active).

In the case of `COCc1nnc(NC(=O)c2ccc(S(=O)(=O)N(CC(C)C)CC(C)C)cc2)o1`, the IC50 in assay [7] was 8.81 µM (active).

Take `C=CC[n+]1c(-c2ccc(Cl)cc2Cl)csc1Nc1ccc(NC(C)=O)cc1`: in assay [7], the 50% inhibitory concentration (IC50) is 2.75 µM (active). For the molecule `C=CCN1C=C2C(=O)C(C)(OC(=O)CCC(=O)OC)C(=O)C=C2C=C1C1CC1` (centres undefined), in assay [8], the IC50 was 39.3 µM (active). Same read-out and setting: in the case of `COc1ccc2c(c1)Cc1sc(NC(=O)c3ccco3)nc1-2` it was 45.8 µM (active). Take `NS(=O)(=O)c1ccc(CCNc2nc3c(-c4cccc(F)c4)nnn3c3ccccc23)cc1`: the EC50 in [9], in assay [11] and in [12] was > 120 µM (not active) each time. Besides, in assay [10], the IC50 is 11.2 µM (inactive). On to `O=C(O)CSc1cccc2cccnc12`, for which the AC50 in assay [13] was 74.5 µM (active).

Take `CN1CCN(c2nc(-c3ccccn3)nc3ccccc23)CC1`: in assay [14], the AC50 is 53.8 µM (active).

For the molecule `COc1cccc(NC(=O)COc2cccc3c2CCNC3=O)c1`, the AC50 with Vero is 37.2 µM (active). For the same molecule, in the assay on H9c2, the IC50 was > 79 µM (inactive). Consider `C#CCN(C[C@@H]1[C@@H](OC(=O)NCc2ccccc2F)[C@@H](OC(=O)NCc2ccccc2F)Cn2c(=O)ccc(=O)n21)S(=O)(=O)c1ccc(C)cc1`, for which the AC50 in [15] is 2.58 µM (active); at Paired box protein Pax-8, 5.52 µM (active); with HEK293 it was 7.17 µM (active). The IC50 in assay [16] was 8.93 µM (active); in assay [17] it was 9.77 µM (active).

`O=C(NCc1ccccc1)C(c1ccccc1F)n1c(=O)c(-c2ccco2)nc2ccccc21` (centres undefined): in assay [16], the IC50 is 2.24 µM (active). Consider `CC(C)NC(=O)Nc1ccc2c(c1)CC(=O)N([C@H](C)CO)C[C@@H](C)[C@@H](CN(C)Cc1ccc(Oc3ccccc3)cc1)O2`, for which, in assay [13], the AC50 is 132 µM (active). Regarding `Cc1ccc(C)c(NC(=O)CN2C(=O)C3CC=CCC3C2=O)c1` (centres undefined), the AC50 in the assay with Vero was 35.8 µM (active). As for `C[C@@H]1CN([C@H](C)CO)C(=O)Cc2cc(NS(=O)(=O)c3cccs3)ccc2O[C@@H]1CN(C)S(=O)(=O)c1ccc(Cl)cc1`, the AC50 in assay [18] is 4.11 µM (active). Take `Cc1ccc(S(=O)(=O)N(C)C[C@@H]2Oc3c(NC(=O)CCCCCC(=O)Nc4ccccc4N)cccc3C(=O)N([C@H](C)CO)C[C@@H]2C)cc1`: the AC50 in assay [18] is 6.27 µM (active).

For the molecule `CN(C)CCCNc1nc2cc(-c3ccccc3)sc2c(=O)n1C`, the AC50 is 40.3 µM (active) in assay [14] and 10.8 µM (active) in [6].

`COc1ccc(S(=O)(=O)N(C)C[C@@H]2Oc3cc(-c4cccc(F)c4)ccc3S(=O)(=O)N([C@@H](C)CO)C[C@H]2C)cc1`: the AC50 in assay [19] was 3.72 µM (active). As for `COc1ccc(NC(=O)CS(=O)(=O)c2ccc(C)cc2)c(OC)c1`, the figures for the IC50 (in assay [1]; in [2]; at Steroidogenic factor 1) were 35.9 µM (inactive), 12 µM (inactive) and 10 µM (inactive), respectively. `O=Cc1ccc2noc(-c3ccc(Cl)cc3)c2c1`: the EC50 is > 91.2 µM (inactive) in assay [20] and > 91.1 µM (inactive) in assay [21].
